Measured values: patent US20250319059A1, “Method for Treating Inflammatory Dysfunction of the Oral Mucosa” (VIVASOR, INC., priority 2022, published 2025)

Tests used:
[1] = Safety variables of the FCGS effectiveness study (mortality, adverse events, clinical observations, body weight, ability to eat); assay type: in vivo, cat
Text: Mortality—No mortality, whether by natural death or euthanasia, occurred on this study.
An adverse event (AE) is defined as any undesirable event, expected or not, occurring to a study animal during the study, regardless of whether the event was considered to have a causal relation to a study treatment. Adverse events were reported at scheduled times during the study from Day 0 to the last day of the study. Certain adverse events, defined as serious adverse events, were reported in an expedited fashion to allow for possible study protocol modifications. A Serious Adverse Event (SAE) is defined as any medical occurrence that results in hospitalization longer than 24 hours or results in significant disability or morbidity or is life threatening or results in death.
Severity, causality and outcome of adverse events were recorded. Causality is a determination of whether there was a reasonable possibility that the drug may have caused or contributed to an AE. This relationship was described as “unlikely”, “possible”, “probable”, “definite”, or “unknown.”
On Day 0, starting once the RTX was applied to all oral lesions (time 0), clinical observations were carried out by the veterinarian at 10, 30, 45, 60 (±5 minutes), as well as at 2 hours (±10 minutes) and 4 hours (±15 minutes), post-treatment administration. Cats were observed past 4 hours post-treatment administration, as necessary or until resolution of abnormal observations.
Cats were weighed on days 0, 7, 14, and 28. Normal body weights were reported for 24 of the 28 cats. Two cats (one in Cohort 1 and one in Cohort 3) had abnormal (low) weight on day 0, but normal weight by day 28.
Cats' ability to eat was assessed on days 0, 7, 14, and 28. The majority of the cats' ability to eat improved throughout the study. On day 28, no differences in ability to eat were detected between cohorts.

[2] = test system: oral pain associated with Feline Chronic Gingivostomatitis (FCGS); assay: Veterinarian Specific Outcome Measures (VSOM) in client-owned cats after oral topical RTX; assay type: in vivo, cat; conditions: for treatment success rate (VSOM): Day 28 vs Day 0, success = reduction of at least 2 in total VSOM score
Text: (§1) Characterize the required dose of RTX applied topically to the oral mucosa for the control of pain associated with Feline Chronic Gingivostomatitis (FCGS).
• Cat less than 12 months of age. • Cat's body weight less than 2 kg. • Cat unlikely to survive a 30-min anesthesia or sedation procedure. • Cat was unlikely to survive 4 weeks due to health issues other than oral pain. • Cat was unavailable for the entire study duration or was felt to be unsuitable by the Investigator for another reason. • Cat was participating in another study • Cat was pregnant or lactating. • Cat underwent an oral surgical procedure within 30 days prior to screening. • Cat received cannabinoid agonists such as cannabidiol (CBD) or anandamide within 28 days of starting the study. • Cat received oral corticosteroids within 1 week of starting the study, or injectable corticosteroids within 6 weeks of starting the study, and/or required medication or supplements during the study that may have interfered with the objective of the study.
Twenty-eight cats, each weighing over 2 kg and over 12 months of age, were enrolled in this study. There was no apparent trend in the ages of cats enrolled in the study. Enrolled cats were physically examined (their physical exam findings such as general appearance, ears/eyes/mouth, abdominal/gastrointestinal, musculoskeletal, neurological urogenital, lymphatic etc. . . . were recorded). Their weight and vital signs were recorded as well.
Veterinarian Specific Outcome Measures (VSOM)—Qualitative assessment of common stomatitis signalment was carried out prior to the beginning of treatment and on day 7, 14, and 28 (at the conclusion of treatment). Cats were assessed for drooling, pain while eating, pain at manipulation and swelling of the oral tissue. Each clinical sign was graded from 1 to 5 (1=no problem; 5=Impossible).
Treatment success was defined as “a reduction of at least 2 in total VSOM score at Day 28 compared to VSOM score at Day 0. A decrease of less than 2, no change, or an increase in total score was defined as treatment failure. Cats presenting an increase in any individual VSOM were considered a treatment failure regardless of total VSOM score. […] The results of each cohort were not compared statistically; only descriptive statistics were generated due to the small number of cats per cohort and lack of randomization. However, there was no evidence of a relationship between treatment success and dose.
(§2) Each animal was randomly assigned to one of three groups. Ten cats (group 1) were treated with 6.25 μg RTX (total) diluted with sterile saline for a total volume of 2 mL. Nine cats (group 2) were treated with 12.5 μg RTX (total) diluted with sterile saline for a total volume of 2 mL. Nine cats (group 3) were treated with 25 μg RTX (total) diluted with sterile saline for a total volume of 2 mL.
RTX solution was applied using a clean cotton tip applicator directly to the visible lesions and adjacent tissue. The non-target dosing areas (caudal mouth/pharynx) were protected using a 4×4 gauze. Any targeted area was dried with sterile gauze or using the air-water syringe system. The saturated applicator for was gently pressed along the targeted areas for 10 seconds. Two to three coats per lesion were applied using the same cotton tip applicator. The area was allowed to dry for a few seconds before moving to the next lesion by exposing the area to the air or by gently using the air-water syringe system. […]

[3] = test system: oral inflammation, Feline Chronic Gingivostomatitis (FCGS); assay: Stomatitis Disease Activity Index (SDAI) in client-owned cats after oral topical RTX; assay type: in vivo, cat; conditions: for treatment success (SDAI): success = 20% reduction in Day 28 SDAI vs Day 0 (post-hoc)
Method: as §1
Stomatitis Disease Activity Index (SDAI)—This semi-quantitative assessment of oral inflammation was carried out prior to the beginning of treatment (day 0) and at day 28 (at the conclusion of treatment). Cats were assessed by owner for cat's interest in food and ability to eat, perceived comfort, grooming behavior, and activity levels. Each assessment was graded from 0 to 3 (0=no problem; 3=severe problems).
The average of the scores in Table 1 (total score divided by 4) were entered in the “owner evaluation” box on the initial SDAI (Stomatitis Disease Activity Index) tabulation sheet of Table 2. The rest of the questions on SDAI survey were completed by the veterinarian prior to the beginning of treatment (day 0) and at day 28 (at the conclusion of treatment). Each assessment was graded from 0 to 3 (0=no problem; 3=severe problems) as follows:
Treatment success using the SDAI metric was defined post-hoc as a 20% reduction in the Day 28 SDAI compared to Day 0. Based on this definition, the percentage success was 100.0%, 80.0% and 44.4% for Cohorts 1, 2, and 3 respectively. The discrepancy in the success rate of Cohort 3 using the two metrics may be due to a higher baseline SDAI score.
as §2
RTX solution was applied using a clean cotton tip applicator directly to the visible lesions and adjacent tissue. The non-target dosing areas (caudal mouth/pharynx) were protected using a 4×4 gauze. Any targeted area was dried with sterile gauze or using the air-water syringe system. The saturated applicator for was gently pressed along the targeted areas for 10 seconds. Two to three coats per lesion were applied using the same cotton tip applicator. The area was allowed to dry for a few seconds before moving to the next lesion by exposing the area to the air or by gently using the air-water syringe system. When possible, and in absence of active bleeding due to manipulation, the RTX solution was allowed to drip into the gingival sulcus. If a target area was actively bleeding, an attempt to decrease or stop the bleeding was made before the RTX application.

[4] = Preliminary safety study of oral topical application of RTX in cats with gingival inflammation; assay type: in vivo, cat
Text: This example provides safety data related to oral topical application of RTX. The primary objective of this study was to determine the initial tolerance of RTX when it is topically administered under anesthesia to the oral cavity of cats as a single treatment.
Four cats were enrolled in this study. Each cat presented with mild to moderate gingival inflammation. The cats were allocated to two treatment groups according to severity of gingival inflammation. Group 1 cats, those with mild cases of gingivitis, were dosed on study Day 0 with a diluted RTX solution (12.5 μg/mL) applied topically to the maxillary and mandibular gingival tissue (buccal and palatal/lingual gingiva). Group 2 cats, those with current or recent historical moderate gingivitis, underwent the same treatment regimen on study Day 0 with the addition of application to the palatal and sublingual tissue.
Total dose of RTX tested per cat (diluted with sterile saline for a total volume of 2 mL) was: 17.5 μg (Group 1 cat), 23.75 μg (Group 1 cat), or 25 μg (Group 2 cats) RTX. One cat (pudding) received 17.5 μg RTX, one cat (Clank) received 23.75 μg RTX, and two cats (Forbes and Bianca) received 25 μg RTX. A single application of RTX was topically applied inside the mouth of each cat. The RTX was applied to the entire mouth.
Cats were anesthetized during treatment administration and for 30 minutes post-dose. Diphenhydramine (2 mg/kg, IM) was given as an anesthetic pre-treatment a minimum of 30 minutes prior to dosing. Induction was then performed using a combination of medetomidine 0.03 mg/kg, ketamine 5 mg/kg and butorphanol 0.2 mg/kg; dose volume 0.1 mL/kg, IM. Following application of a lidocaine hydrochloride spray to the larynx, intubation was performed and anesthesia was maintained using an isofluraneoxygen mixture. Standard anesthetic monitoring of vital signs was performed approximately every 5-10 minutes following dosing and precautions were taken to avoid low body temperature throughout the procedure. Cats remained under anesthesia for 30 minutes following dosing for additional monitoring. Upon removal from anesthetic, reversal drug atipamezole (0.2 mg/kg, IM) was administered.
To assess RTX tolerance, adverse event monitoring was performed using the following parameters: measurement of vital signs during anesthesia; physical examinations performed 0.25, 0.5, 1, 2, 3 and 4 hours following recovery from anesthesia (i.e. removal of endotracheal tube) as well as 1, 3 and 7 days post-dose in both the morning (AM) and afternoon (PM); twice daily clinical observations; daily food consumption measurement.

TRPV1 receptor = TRPV1 receptor (Homo sapiens, UniProt Q8NER1); conditions: cited from earlier work
TRPV1 receptor, sequence (Q8NER1 whole entry): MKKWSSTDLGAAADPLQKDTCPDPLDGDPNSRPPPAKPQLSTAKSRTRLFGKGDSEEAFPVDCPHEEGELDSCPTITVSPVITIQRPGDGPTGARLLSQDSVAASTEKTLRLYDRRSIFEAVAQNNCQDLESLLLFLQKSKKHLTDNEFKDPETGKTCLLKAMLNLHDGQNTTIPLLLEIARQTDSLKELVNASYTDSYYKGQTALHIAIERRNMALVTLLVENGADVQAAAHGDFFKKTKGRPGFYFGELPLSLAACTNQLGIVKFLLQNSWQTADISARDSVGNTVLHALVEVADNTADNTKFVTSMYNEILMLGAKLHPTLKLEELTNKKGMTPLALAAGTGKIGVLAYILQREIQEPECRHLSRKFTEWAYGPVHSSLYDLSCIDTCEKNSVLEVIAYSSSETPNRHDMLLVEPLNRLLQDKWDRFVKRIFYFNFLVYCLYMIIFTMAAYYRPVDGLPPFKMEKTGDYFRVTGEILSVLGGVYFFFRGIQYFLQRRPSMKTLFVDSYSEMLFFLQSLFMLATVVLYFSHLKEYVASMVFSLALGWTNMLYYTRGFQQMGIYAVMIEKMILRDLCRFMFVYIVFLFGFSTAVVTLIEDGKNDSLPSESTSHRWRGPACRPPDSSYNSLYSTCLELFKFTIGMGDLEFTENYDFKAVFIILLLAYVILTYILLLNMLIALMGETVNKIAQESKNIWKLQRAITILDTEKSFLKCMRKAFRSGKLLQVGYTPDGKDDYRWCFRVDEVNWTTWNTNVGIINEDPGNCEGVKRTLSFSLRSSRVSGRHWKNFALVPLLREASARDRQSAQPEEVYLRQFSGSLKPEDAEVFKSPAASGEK

C=C(C)[C@]12C[C@@H](C)[C@@]34O[C@](Cc5ccccc5)(O[C@@H]1[C@@H]3C=C(COC(=O)Cc1ccc(O)c(OC)c1)C[C@]1(O)C(=O)C(C)=C[C@@H]41)O2 [RTX, resiniferatoxin]
severity of adverse events ([1]; 6.25-25 μg RTX topical oral): Most of the AE were graded as mild
serious adverse events (SAE) during in-life ([1]; 28 cats, 6.25-25 μg RTX topical oral): One
mortality ([1]; 28 cats, 6.25-25 μg RTX topical oral, 28 days): No mortality
signs of systemic RTX exposure ([1]; application on inflamed oral mucosa): did not exhibit signs of systemic RTX exposure
ability to eat ([1]; assessed days 0, 7, 14, 28, all cohorts): most of the cats in all cohorts that completed the study had an improvement in the ability to eat
cats with normal body weights ([1]; weighed days 0, 7, 14, 28): 24 of the 28
time to resolution of clinical signs (panting, hypersalivation, tachycardia, restlessness) post-treatment ([1]; without medical intervention): ≤ 3 h
control of pain and inflammation ([2]; 6.25 μg RTX, 28 days): effective in controlling pain and inflammation for 28 days
treatment success rate (VSOM) ([2]; Cohort 1, 6.25 μg RTX topical oral): 90.0%
treatment success rate (VSOM) ([2]; Cohort 2, 12.5 μg RTX topical oral): 80.0%
treatment success (VSOM) on Day 14 ([2]; Cohort 2, 12.5 μg RTX, Day 14): all cats in Cohort 2 were a success
treatment success rate (VSOM) ([2]; Cohort 3, 25 μg RTX topical oral): 88.9%
treatment success (SDAI) ([3]; Cohort 1, 6.25 μg RTX): 100.0%
treatment success (SDAI) ([3]; Cohort 2, 12.5 μg RTX): 80.0%
treatment success (SDAI) ([3]; Cohort 3, 25 μg RTX): 44.4%
percent improvement in SDAI ([3]; day 0 to day 28): about 60%
time to resolution of mild increases in severity of gingivitis ([4]; 2 cats, without intervention): ≤ 3 days post-dose
food consumption ([4]; 8 days following RTX administration): returned to normal by day seven
body weight ([4]; day 8 vs before administration): by day 8 the weight was back to normal
tolerability ([4]; single topical oral application 17.5-25 μg RTX (12.5 μg/mL), 4 cats, followed 8 days): well tolerated with only mild and transient adverse events
potency relative to capsaicin (TRPV1 receptor; TRPV1 receptor agonist): 1000-10,000 times
Scoville scale (TRPV1 receptor): 16 billion
